{"source": "patent US12655116B2", "about": "“Substituted isophthalic acid diamides” (Bayer Aktiengesellschaft, priority 2020, dated 2026)", "key": {"DIGSA [1]": {"test_system": "DIGSA", "assay": "Post-emergence herbicidal action against DIGSA", "format": "in vivo, Digitaria sanguinalis", "how_it_was_run": "(§1)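 Foliar application at one-leaf stage of formulated test compounds, aqueous spray at 600–800 l/ha with 0.2% wetting agent. Greenhouse, optimal conditions, ~3 weeks; damage scored visually in % relative to untreated plants.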"}, "ECHCG [2]": {"test_system": "ECHCG", "assay": "Post-emergence herbicidal action against ECHCG", "format": "in vivo, Echinochloa crus-galli", "how_it_was_run": "as §1"}, "ABUTH [3]": {"test_system": "ABUTH", "assay": "Pre-emergence herbicidal action against ABUTH", "format": "in vivo, Abutilon theophrasti", "how_it_was_run": "(§2)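 Greenhouse pots of sandy loam held seeds covered with soil, onto which the compound was applied before emergence. An aqueous suspension or emulsion of WP or EC was used at 600 to 800 l/ha with 0.2% wetting agent. Percent damage was judged visually at 3 weeks.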"}, "POLCO [4]": {"test_system": "POLCO", "assay": "Post-emergence herbicidal action against POLCO", "format": "in vivo, Polygonum convolvulus", "settings": "dosage 20 g/ha", "how_it_was_run": "as §1"}, "AMARE [5]": {"test_system": "AMARE", "assay": "Post-emergence herbicidal action against AMARE", "format": "in vivo, Amaranthus retroflexus", "settings": "20 g/ha, visual assessment about 3 weeks after treatment, 100% = plants have died, 0% = like control plants", "how_it_was_run": "as §1"}, "MATIN": {"test_system": "MATIN", "assay": "Pre-emergence herbicidal action against MATIN", "format": "in vivo, Matricaria inodora", "how_it_was_run": "as §2"}, "AVEFA": {"test_system": "AVEFA", "assay": "Pre-emergence herbicidal action against AVEFA", "format": "in vivo, Avena fatua", "settings": "80 g/ha, pre-emergence", "how_it_was_run": "as §2"}, "DIGSA [6]": {"test_system": "DIGSA", "assay": "Pre-emergence herbicidal action against DIGSA", "format": "in vivo, Digitaria sanguinalis", "how_it_was_run": "as §2"}, "SETVI [7]": {"test_system": "SETVI", "assay": "Post-emergence herbicidal action against SETVI", "format": "in vivo, Setaria viridis", "settings": "dosage 20 g/ha", "how_it_was_run": "as §1"}, "ALOMY": {"test_system": "ALOMY", "assay": "Pre-emergence herbicidal action against ALOMY", "format": "in vivo, Alopecurus myosuroides", "settings": "80 g/ha, pre-emergence, scored visually after 3 weeks vs untreated controls (100% = plants have died, 0% = like control plants)", "how_it_was_run": "as §2"}, "HORMU": {"test_system": "HORMU", "assay": "Pre-emergence herbicidal action against HORMU", "format": "in vivo, Hordeum murinum", "settings": "80 g/ha, pre-emergence", "how_it_was_run": "as §2"}, "VIOTR [8]": {"test_system": "VIOTR", "assay": "Pre-emergence herbicidal action against VIOTR", "format": "in vivo, Viola tricolor", "settings": "dosage 80 g/ha", "how_it_was_run": "as §2"}, "STEME [9]": {"test_system": "STEME", "assay": "Pre-emergence herbicidal action against STEME", "format": "in vivo, Stellaria media", "how_it_was_run": "as §2"}, "POLCO [10]": {"test_system": "POLCO", "assay": "Pre-emergence herbicidal action against POLCO", "format": "in vivo, Polygonum convolvulus", "settings": "dosage 80 g/ha", "how_it_was_run": "as §2"}, "PHBPU": {"test_system": "PHBPU", "assay": "Post-emergence herbicidal action against PHBPU", "format": "in vivo, Pharbitis purpurea", "settings": "dosage 20 g/ha", "how_it_was_run": "as §1"}, "STEME [11]": {"test_system": "STEME", "assay": "Post-emergence herbicidal action against STEME", "format": "in vivo, Stellaria media", "settings": "20 g/ha", "how_it_was_run": "as §1"}, "ECHCG [12]": {"test_system": "ECHCG", "assay": "Pre-emergence herbicidal action against ECHCG", "format": "in vivo, Echinochloa crus-galli", "settings": "80 g/ha", "how_it_was_run": "as §2"}, "ABUTH [13]": {"test_system": "ABUTH", "assay": "Post-emergence herbicidal action against ABUTH", "format": "in vivo, Abutilon theophrasti", "settings": "visual assessment about 3 weeks after treatment vs untreated controls", "how_it_was_run": "as §1"}, "SETVI [14]": {"test_system": "SETVI", "assay": "Pre-emergence herbicidal action against SETVI", "format": "in vivo, Setaria viridis", "settings": "dosage 80 g/ha", "how_it_was_run": "as §2"}, "AMARE [15]": {"test_system": "AMARE", "assay": "Pre-emergence herbicidal action against AMARE", "format": "in vivo, Amaranthus retroflexus", "how_it_was_run": "as §2"}, "VIOTR [16]": {"test_system": "VIOTR", "assay": "Post-emergence herbicidal action against VIOTR", "format": "in vivo, Viola tricolor", "settings": "20 g/ha", "how_it_was_run": "as §1"}, "[17]": {"settings": "80 g/ha, scored visually after 3 weeks vs untreated controls (100% = plants have died, 0% = like control plants)"}}, "data": [{"smiles": "CCNC(=O)c1c(C(F)(F)F)ccc(C(=O)Nc2nnc(C)o2)c1C", "note": "[Example 6-26]", "values": [{"measurement": "Post-emergence action against DIGSA in %", "setting": "DIGSA [1]; 5 g/ha", "result": 90, "unit": "%"}, {"measurement": "Post-emergence action against DIGSA", "setting": "DIGSA [1]; 20 g/ha", "result": 90, "unit": "%"}, {"measurement": "Post-emergence action against ECHCG in %", "setting": "ECHCG [2]; dosage 5 g/ha", "result": 80, "unit": "%"}, {"measurement": "Post-emergence action against ECHCG in %", "setting": "ECHCG [2]; dosage 20 g/ha", "result": 90, "unit": "%"}, {"measurement": "Pre-emergence action against ABUTH (herbicidal activity)", "setting": "ABUTH [3]; [17]", "result": 100, "unit": "%"}, {"measurement": "Pre-emergence action against ABUTH (herbicidal activity in percent)", "setting": "ABUTH [3]; dosage 20 g/ha, scored visually after 3 weeks vs untreated controls, 100% = plants have died, 0% = like control plants", "result": 100, "unit": "%"}, {"measurement": "Post-emergence action against POLCO in %", "setting": "POLCO [4]", "result": 80, "unit": "%"}, {"measurement": "Post-emergence action at 20 g/ha against AMARE in %", "setting": "AMARE [5]", "result": 100, "unit": "%"}, {"measurement": "Pre-emergence action against MATIN in %", "setting": "MATIN; dosage 20 g/ha", "result": 80, "unit": "%"}, {"measurement": "Pre-emergence action against MATIN in %", "setting": "MATIN; dosage 80 g/ha", "result": 90, "unit": "%"}, {"measurement": "Pre-emergence action against AVEFA in %", "setting": "AVEFA", "result": 80, "unit": "%"}, {"measurement": "Pre-emergence action against DIGSA in %", "setting": "DIGSA [6]; dosage 20 g/ha", "result": 100, "unit": "%"}, {"measurement": "Pre-emergence action against DIGSA in %", "setting": "DIGSA [6]; dosage 80 g/ha", "result": 100, "unit": "%"}, {"measurement": "Post-emergence action against SETVI in %", "setting": "SETVI [7]", "result": 80, "unit": "%"}, {"measurement": "Pre-emergence action against ALOMY (herbicidal activity)", "setting": "ALOMY", "result": 80, "unit": "%"}, {"measurement": "Pre-emergence action against HORMU in %", "setting": "HORMU", "result": 80, "unit": "%"}, {"measurement": "Pre-emergence action against VIOTR in %", "setting": "VIOTR [8]", "result": 100, "unit": "%"}, {"measurement": "Pre-emergence action against STEME in %", "setting": "STEME [9]; dosage 20 g/ha", "result": 80, "unit": "%"}, {"measurement": "Pre-emergence action against STEME in %", "setting": "STEME [9]; dosage 80 g/ha", "result": 100, "unit": "%"}, {"measurement": "Pre-emergence action against POLCO in %", "setting": "POLCO [10]", "result": 100, "unit": "%"}, {"measurement": "Post-emergence action against PHBPU in %", "setting": "PHBPU", "result": 80, "unit": "%"}, {"measurement": "Post-emergence action against STEME in %", "setting": "STEME [11]", "result": 80, "unit": "%"}, {"measurement": "Pre-emergence action against ECHCG in %", "setting": "ECHCG [12]", "result": 100, "unit": "%"}, {"measurement": "Post-emergence action against ABUTH in %", "setting": "ABUTH [13]; dosage 5 g/ha", "result": 90, "unit": "%"}, {"measurement": "Post-emergence action against ABUTH in %", "setting": "ABUTH [13]; dosage 20 g/ha", "result": 90, "unit": "%"}, {"measurement": "Pre-emergence action against SETVI in %", "setting": "SETVI [14]", "result": 100, "unit": "%"}, {"measurement": "Pre-emergence action against AMARE in %", "setting": "AMARE [15]; 20 g/ha, scored visually after 3 weeks vs untreated controls, 100% = plants have died, 0% = like control plants", "result": 100, "unit": "%"}, {"measurement": "Pre-emergence action against AMARE in %", "setting": "AMARE [15]; [17]", "result": 100, "unit": "%"}, {"measurement": "Post-emergence action against VIOTR in %", "setting": "VIOTR [16]", "result": 100, "unit": "%"}]}]}
